From publication PMC12771125, “Compounds Reducing Human Sperm Motility as Potential Nonhormonal Contraceptives Identified Using a High-Throughput Phenotypic Screening Platform” (ACS Omega, 2025)
Read-outs that look alike come from different tables or passages of the source.

Key:
human sperm = experiment: Reduction of sperm motility (RSM) high-throughput phenotypic assay; format: cell-based; settings: reduction of progressive sperm motility relative to control; for EC50: Homo sapiens
Procedure: Using our previously established phenotypic human sperm motility screening platform, we screened a large subset (62,621 compounds) of one of our in-house diversity libraries (National Phenotypic Screening Centre (NPSC) Diversity Set) (Figure A,B). Briefly, human sperm are collected, isolated from semen, distributed into 384-well plates with test compounds, time-lapse images of sperm movement are recorded using a high-content imager, and progressive motility parameters are calculated using custom data analysis software. Sperm motility is complicated, and the mechanisms underpinning its regulation are not fully understood. Progressive motility, which is a measurement of the movement of forward progression of sperm, is most closely linked to sperm quality, and the percentage of progressively motile sperm compared to control is therefore the parameter utilized during the work described in this paper. […]
We used an HTS screening platform to assess the motility of live human spermatozoa. The platform and its development are described in detail in Gruber et al. , and summarized below in brief. The platform was used to screen compound libraries specifically focusing on reduction in motility. Interesting compounds were examined in further detail as possible starting points for a medicinal chemistry program. The experimental design is illustrated in Figure .
Donors were local to the Dundee area, over the age of 18, and had no known fertility problems and normal sperm concentration, motility and semen characteristics according to WHO 2021 criteria. Special category personal data for donors, such as ethnic origin, was not recorded in accordance with ethical approval and UK GDPR. Samples were obtained by masturbation, after sexual abstinence of 2–5 days, and delivered to the research laboratory within one h of production. Samples were allowed to liquefy at 37 °C for 15–30 min prior to preparation by discontinuous density gradient centrifugation (DGC). […] A minimum of 3 prepared donor samples were routinely pooled to reduce donor-to-donor variability for primary screening assays. Pooled samples were incubated for 3 h at 37 °C under noncapacitating conditions.
In brief, screening batches of cells were transferred to a robotic platform (HighRes Biosolutions Inc.) and maintained during the screen at 37 °C at 5% CO2. Assay-ready 384-well plates containing compounds were prepared prior to the screen and filled with approximately 10,000 spermatozoa (20 μL) per well using a liquid handling system (MultiDrop Combi; ThermoFisher). These plates were incubated for 10 min prior to imaging. The HTS system utilized a Yokogawa CV7000 Cell Voyager high-throughput microscope to record time-lapse images from 2 positions in each well. An adaptation of a tracking algorithm, Trackpy v0.4.1 was utilized to track individual spermatozoa within each well and obtain kinematic parameters. Within the compound-test plates, DMSO was used as the vehicle control.
All steps were performed as previously described. , In summary, data from every compound well were normalized to those from in-plate DMSO controls (wells containing the same amount of DMSO as compound wells). Two positions were recorded in every well, and the average of those positions was used for calculating % of control (median value/DMSO median) × 100. Each plate contained 16 DMSO control wells. Median curvilinear velocity (VCL) was used as the primary readout for the NPSC Diversity Set screened at 6 μM, and percentage progressive motility (PM) was used for all other libraries screened. Hits from the primary screening were chosen based on the % change compared to the control. In these experiments, an RSM of ≥20% compared to negative controls (DMSO) was chosen as a cutoff for potential progression.
In a screening program of this scale, a significant number of compounds are likely to have a negative effect on sperm motility, but a number will show general toxicity. […]

HepG2 cells = experiment: HepG2 cytotoxicity assay (resazurin, 72 h); format: cell-based, human; settings: Homo sapiens, HepG2, 72 h; read-out: HepG2 pEC50 (converted)
Source text: Our overarching aims for investigating our chemical series and deciding which ones had the potential for further progression were to achieve adequate potency in our motility assay, suitable solubility, and minimal cytotoxicity in HepG2 cells. This third point was often the most challenging, as multiple series had cytotoxicity in HepG2 cells. This observation is perhaps not surprising; many potential targets in sperm cells can also be found in somatic cells. Our cytotoxicity assay is run with an incubation time of 72 h, to give time for gross cytotoxic effects to become apparent.
Compound dilution curves were plated directly using a Labcyte Echo 550 acoustic dispenser (125 nL) in 384-well white clear-bottom plates (Greiner). HepG2 cells (ATCCHepG2 HB-8065) were cultured in minimum essential medium (supplemented with glutamax) with 10% FCS and plated (25 μL) using a WellMate dispenser ([…]) and incubated for 72 h. Doxorubicin was used as a positive control drug. Resazurin was then added to each well at a final concentration of 45 μM, and fluorescence was measured using a PHERAstar LS (BMG Labtech) after 4 h of further incubation (excitation of 528 nm and emission of 590 nm). Raw data were normalized to controls and expressed as % growth.
Figure S2: Concentration-response curves from high throughput HepG2 viability assay. Each compound was tested in duplicate and the curves of each replicate are shown. The reported values in the tables are an average of the 2 pEC50 values obtained. […]
determine 0% effect, positive control used to determine 100% effect).
Hit compounds 1a, 6b and 7a were repurchased from commercial suppliers including enamine and […]

[1] = 10 min, 10 min incubation, reported <X (neg. log of top concentration) if largest reduction <70%, read-out: RSM pEC50 10 mins (converted)
[2] = 3 h incubation, reported <X if largest reduction <70%, read-out: RSM pEC50 3 hrs (converted)
[3] = 6 h incubation, reported <X if largest reduction <70%, read-out: RSM pEC50 6 hrs (converted)

## O=C(Nc1nc(-c2ccccn2)co1)Nc1ccc(F)cc1F [Compound 3n]
Human sperm; [1]
  EC50: > 31.6 µM
Human sperm; [2]
  EC50: > 31.6 µM
Human sperm; [3]
  EC50: > 31.6 µM
HepG2 cells
  EC50: > 100 µM

## CCN(CC)Cc1cc(Nc2ccnc3cc(Cl)ccc23)ccc1O [Compound 5a, 4-((7-Chloroquinolin-4-yl)amino)-2-((diethylamino)methyl)phenol, reference compound]
Human sperm; [1]
  EC50: > 31.6 µM
Human sperm; [2]
  EC50: > 31.6 µM
Human sperm; [3]
  EC50: 0.501 µM
HepG2 cells
  EC50: 20 µM

## O=C1COC2(CCN(Cc3ccncc3)CC2)CN1 [Compound 8b]
Human sperm; [1]
  EC50: 15.8 µM
Human sperm; [2]
  EC50: 1.26 µM
Human sperm; [3]
  EC50: 0.501 µM

## O=C1COC2(CCN(Cc3ccco3)CC2)CN1 [Compound 8f]
Human sperm; [1]
  EC50: > 31.6 µM
Human sperm; [2]
  EC50: > 31.6 µM
Human sperm; [3]
  EC50: 25.1 µM

## O=C1COC2(CCN(Cc3ccsc3)CC2)CN1 [Compound 8d]
Human sperm; [1]
  EC50: > 31.6 µM
Human sperm; [2]
  EC50: 2 µM
Human sperm; [3]
  EC50: 1 µM

## NCCN(C(=O)c1ccc(F)cc1Cl)c1ccc(Cl)cc1 [Compound 1m]
Human sperm; [1]
  EC50: > 31.6 µM
Human sperm; [2]
  EC50: > 31.6 µM
Human sperm; [3]
  EC50: > 31.6 µM
HepG2 cells
  EC50: 63.1 µM

## N#Cc1ccc(NC(=O)c2ccccc2)cc1Cl [Compound 1i]
Human sperm; [1]
  EC50: > 20 µM
HepG2 cells
  EC50: 39.8 µM

## CN1CC2(CCN(Cc3ccc(F)cc3)CC2)OCC1=O [Compound 8h]
Human sperm; [1]
  EC50: > 31.6 µM
Human sperm; [2]
  EC50: > 31.6 µM
Human sperm; [3]
  EC50: > 31.6 µM
HepG2 cells
  EC50: > 100 µM

## Fc1ccc(Nc2ccnc3cc(Cl)ccc23)cc1CN1CCCC1 [Compound 5h]
Human sperm; [1]
  EC50: > 31.6 µM
Human sperm; [2]
  EC50: > 31.6 µM
Human sperm; [3]
  EC50: > 31.6 µM

## NC(=O)N1CCC2(CCN(Cc3cccc(F)c3)CC2)CC1 [Compound 9a, 9-(3-Fluorobenzyl)-3,9-diazaspiro[5.5]undecane-3-carboxamide]
Human sperm; [1]
  EC50: > 31.6 µM
Human sperm; [2]
  EC50: 6.31 µM
Human sperm; [3]
  EC50: 3.98 µM
HepG2 cells
  EC50: > 100 µM

## CNC(=O)N1CCC2(CCN(Cc3cccc(F)c3)CC2)CC1 [Compound 9c]
Human sperm; [1]
  EC50: > 31.6 µM
Human sperm; [2]
  EC50: > 31.6 µM
Human sperm; [3]
  EC50: > 31.6 µM

## O=C(Nc1nc(C2CC2)cs1)Nc1ccc(F)cc1F [Compound 3h]
Human sperm; [1]
  EC50: > 31.6 µM
Human sperm; [2]
  EC50: > 31.6 µM
Human sperm; [3]
  EC50: > 31.6 µM
HepG2 cells
  EC50: 63.1 µM

## Oc1ccc(Nc2ccnc3cc(Cl)ccc23)cc1CN1CCCC1 [Compound 5b]
Human sperm; [1]
  EC50: > 31.6 µM
Human sperm; [2]
  EC50: > 31.6 µM
Human sperm; [3]
  EC50: 0.2 µM
HepG2 cells
  EC50: 12.6 µM

## 2-(Phenoxymethyl)-N-(4-(pyridin-2-yl)thiazol-2-yl)benzamide [Compound 3a]
Human sperm; 10 min incubation, reported <X (neg. log of top concentration) if largest reduction <70%
  RSM pEC50 10 mins: <4.5
Human sperm; 3 h incubation, reported <X if largest reduction <70%
  RSM pEC50 3 hrs: 5.0
Human sperm; 6 h incubation, reported <X if largest reduction <70%
  RSM pEC50 6 hrs: 5.3

## Cc1cc(C)nc(-n2nc(C)cc2Nc2ccccc2)n1 [Compound 6a, 1-(4,6-dimethylpyrimidin-2-yl)-3-methyl-N-phenyl-1H-pyrazol-5-amine]
Human sperm; [1]
  EC50: > 31.6 µM
Human sperm; [2]
  EC50: 5.01 µM
Human sperm; [3]
  EC50: 1.58 µM

## O=C1COC2(CCN(Cc3ccoc3)CC2)CN1 [Compound 8e]
Human sperm; [1]
  EC50: > 31.6 µM
Human sperm; [2]
  EC50: 3.16 µM
Human sperm; [3]
  EC50: 1.26 µM
